Legend:
[1] = target: T1, ALK2R206H (mutant ALK2, N-terminally tagged with GST) (Homo sapiens, UniProt Q04771, R206H); test: ALK binding assay (LANTHASCREEN TR-FRET competitive binding, displacement of Kinase Tracer 178); details: read-out: Binding Assay (IC50 class)
T1 construct: purchased Carna Bioscience or ThermoFisher 09-148 or PV6232
T1 sequence (Q04771 21-509 R206H): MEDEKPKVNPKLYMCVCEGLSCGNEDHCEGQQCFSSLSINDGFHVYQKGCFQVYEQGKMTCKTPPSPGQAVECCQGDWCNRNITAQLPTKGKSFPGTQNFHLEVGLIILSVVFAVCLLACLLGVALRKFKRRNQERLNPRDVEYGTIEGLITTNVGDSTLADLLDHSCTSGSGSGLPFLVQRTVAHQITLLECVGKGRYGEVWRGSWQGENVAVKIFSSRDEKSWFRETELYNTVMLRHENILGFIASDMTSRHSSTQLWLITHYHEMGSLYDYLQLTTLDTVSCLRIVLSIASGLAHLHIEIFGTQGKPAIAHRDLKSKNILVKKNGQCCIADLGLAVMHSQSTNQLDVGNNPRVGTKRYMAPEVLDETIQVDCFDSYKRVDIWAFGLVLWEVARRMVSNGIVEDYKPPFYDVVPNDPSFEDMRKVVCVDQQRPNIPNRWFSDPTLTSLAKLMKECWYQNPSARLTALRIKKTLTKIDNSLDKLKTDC
Procedure: Example 10 ALK Binding Assays
Binding assays were conducted using the LANTHASCREEN® technology (ThermoFisher Scientific). LANTHASCREEN® is a competitive binding, displacement assay where the assumed steady state occupancy of the binding site is measured using a time-resolved, fluorescence energy transfer (TR-FRET) readout between a fluorescent tracer and Europium (Eu)-tagged antibody specific for the kinase or expression tag (e.g., GST) of interest. Displacement of the tracer by a compound of the disclosure reduces, and is directly proportional to, the TR-FRET between the tracer and the antibody. Tracer was used at a concentration equal to or near to its Kd for the kinase. The Eu-tagged antibody was typically used in excess to ensure sampling of all competent protein capable of binding the tracer.
For these assays, a mutant ALK2 was used that was N-terminally tagged with GST (ALK2R206H Carna Bioscience (09-148) or ALK2R206H ThermoFisher (PV6232)); a Eu-tagged anti-GST antibody (ThermoFisher) and Kinase Tracer 178 (ThermoFisher).
In all cases, the kinase (2-5 nM) was mixed with Eu-tagged antibody (4-10 nM) mix and tracer (50 nM) were incubated with test compound titrations prepared in 100% DMSO (1% DMSO final) for 30 minutes at room temperature. All reagents and compounds were dissolved in Kinase Buffer A (ThermoFisher) to achieve the final concentration. The plates were read on a PerkinElmer EnVision® multilabel plate reader or a BioTek Synergy Neo plate reader, and the assay signal was represented as a ratio of the TR-FRET emission (λex 330 nm, λ^em […] and λ^em 665 nm). This readout was normalized to 0% and 100% inhibited control wells, plotted against inhibitor concentration, and fitted to a 4-parameter log dose response curve.
The results of this assay are shown in Table 3 in the column labelled “Binding Assay” wherein “A” represents an IC50 of less than or equal to 10 nM; “B” represents an IC50 of greater than 10 nM and less than or equal to 50 nM; and “C” represents an IC50 of greater than 50 nM. Blank values in the table indicate that the particular compound was not tested in this assay.

human ALK2 R206H = target: T2, human ALK2 R206H (Homo sapiens, UniProt Q04771, R206H); test: Cell-based ALK2-R206H cell activity assay (Smad1-Ser463/Ser465 phosphorylation by AlphaLISA in HEK293-ALK2-R206H cells); details: phospho-Smad1 AlphaLISA, read-out: Cell Line (Cell Assay, IC50 class)
T2 construct: expressed in transfected cells; host or cells: HEK293 (ATCC CRL1573), lentivirus transduction, blasticidin selection
T2 sequence (Q04771 21-509 R206H): T1 sequence (Q04771 21-509 R206H)
Procedure: Example 11. Cell-Based ALK2-R206H Cell Activity Assay
A HEK293 (ATCC, Cat No. CRL1573) based stable cell line expressing human ALK2 R206H cDNA (synthesized by GeneScript, Piscataway, N.J.) and a FLAG tag at the C-terminus was generated by lentivirus transduction and subsequent blasticidin (Life Technologies, Cat No. A1113902) selection at 10 μg/ml for >2 wks. This cell line was named HEK293-ALK2-R206H.
B. Measurement of Smad1-Ser463/Ser465 Phosphorylation by AlphaLISA
HEK293-ALK2-R206H cells were grown, harvested, and then resuspended in serum-free, phenol red-free DMEM high glucose media (Life Technologies, Cat No. 31053). The media also contained 50 units/ml penicillin and 50 μg/ml streptomycin (Life Technologies, Cat. No. 15070-063). HEK293-ALK2-R206H cells were then plated in white opaque 384-wells microplates (2×10^4/well) (OptiPlate-384, PerkinElmer, Waltham, Mass., Cat No. 6007299) overnight (>16h) at 37° C. 5% CO2 for use in the assay.
Test compounds were first diluted to 4 mM or 0.4 mM and then serially diluted 3-fold into 10 different concentrations using DMSO. Each concentration of compound was further diluted 40-fold with phenol red-free DMEM (Life Technologies, Cat No. 31053). 2 μl of the diluted compounds were then dispensed into the HEK293-ALK2-R206H cell-containing wells of the microplates in duplicates. In this way, each compound was tested in 10 doses (3-fold serial dilution with the top concentration being 10 μM or 1 μM). Liquid handling was achieved using a Bravo Automated Liquid Handling Platform (Agilent Technologies). DMSO without compound was used as a negative control. The positive control was 1 μM LDN193189, a known bone morphogenetic protein (BMP inhibitor).
After 2-3 hours of incubation with test compound or control, the cells were lysed and signal was developed using ALPHASCREEN® SUREFIRE® SMAD1 (p-Ser463/465) cellular kinase assay kit (PerkinElmer, Cat No. TGRSM1S10K) following the manufacturer's recommended protocol. The microplates were read using Perkin Elmer ENVISION® plate reader (emission […]). The signal reflected the level of phospho-Ser/463/465-Smad1 in the lysate. The raw data were plotted using the DMSO negative and LDN193189 positive controls as the 0% and 100% inhibition, respectively. The 10-point dose response curve was used to calculate the IC50 values.
The results of this assay are shown in Table 3 in the column labeled “Cell Assay” wherein “A” represents an IC50 of less than or equal to 100 nM; “B” an IC50 of greater than 100 nM and less than or equal to 500 nM; “C” an IC50 of greater than 500 nM. Blank values in the table indicate that the particular compound was not tested in this assay.

Compound	IC50 [1] [nM]	IC50 (human ALK2 R206H) [nM]
O=C(C1CC1)N1CCN(c2ccnc3[nH]c(-c4ncco4)cc23)CC1 [Compound 1]	10 to 50	> 500
CCC(=O)N1CCN(c2ccnc3[nH]c(-c4cnn(C)c4)cc23)CC1 [Compound 2]	≤ 10	> 500
Cn1cc(-c2cc3c(N4CCN(C(=O)C5CC5)CC4)ccnc3[nH]2)cn1 [Compound 6]	≤ 10	100 to 500
CCOC(=O)N1CCN(c2ccnc3[nH]c(-c4ccccn4)cc23)CC1 [Compound 7]	≤ 10	≤ 100
CCOC(=O)N1CCN(c2ccnc3[nH]c(-c4cccnc4)cc23)CC1 [Compound 8]	≤ 10	100 to 500
CCOC(=O)N1CCN(c2ccnc3[nH]c(-c4cnn(C)c4)cc23)CC1 [Compound 11]	≤ 10	100 to 500
CCOC(=O)N1CCN(c2ccnc3[nH]c(-c4ccn(C)n4)cc23)CC1 [Compound 12]	≤ 10	100 to 500
CCOC(=O)N1CCN(c2ccnc3[nH]c(-c4cn(C)nn4)cc23)CC1 [Compound 13]	≤ 10	100 to 500
O=C(C1CC1)N1CCN(c2ccnc3[nH]c(-c4ccc(F)cc4)cc23)CC1 [Compound 19]	≤ 10	100 to 500
Cn1cc(-c2cc3c(N4CCN(C(=O)CC5CC5)CC4)ccnc3[nH]2)cn1 [Compound 21]	≤ 10	100 to 500
CCn1cc(-c2cc3c(N4CCN(C(=O)C5CC5)CC4)ccnc3[nH]2)cn1 [Compound 23]	≤ 10	100 to 500
CCOC(=O)N1CCN(c2ccnc3[nH]c(-c4ccc(C)cn4)cc23)CC1 [Compound 24]	≤ 10	100 to 500
CCOC(=O)N1CCN(c2ccnc3[nH]c(-c4cccc(C)n4)cc23)CC1 [Compound 26]	≤ 10	100 to 500
Cn1cnc(-c2cc3c(N4CCN(C(=O)OC5CC5)CC4)ccnc3[nH]2)c1 [Compound 29]	≤ 10	≤ 100
Cn1cc(-c2cc3c(N4CCN(C(=O)OC5CC5)CC4)ccnc3[nH]2)cn1 [Compound 30]	≤ 10	≤ 100
CC(C)CC(=O)N1CCN(c2ccnc3[nH]c(-c4cnn(C)c4)cc23)CC1 [Compound 32]	10 to 50	100 to 500
CCC(C)C(=O)N1CCN(c2ccnc3[nH]c(-c4cnn(C)c4)cc23)CC1 (centres unmarked) [Compound 33]	10 to 50	100 to 500
Cc1cnc(-c2cc3c(N4CCN(C(=O)C5CC5)CC4)ccnc3[nH]2)s1 [Compound 34]	≤ 10	100 to 500
Cc1csc(-c2cc3c(N4CCN(C(=O)C5CC5)CC4)ccnc3[nH]2)n1 [Compound 35]	≤ 10	100 to 500
Cn1cc(-c2cc3c(N4CCN(C(=O)[C@@H]5C[C@H]5F)CC4)ccnc3[nH]2)cn1 [Compound 37]	≤ 10	≤ 100

Compound	IC50 [1] [nM]	IC50 (human ALK2 R206H) [nM]
CCOC(=O)N1CCN(c2ccnc3[nH]c(-c4cnn(C)c4)c(C)c23)CC1 [Compound 38]	≤ 10	≤ 100
CCOC(=O)N1CCN(c2ccnc3[nH]c(-c4cc(C)n(C)n4)cc23)CC1 [Compound 39]	≤ 10	100 to 500
CCCOC(=O)N1CCN(c2ccnc3[nH]c(-c4cnn(C)c4)cc23)CC1 [Compound 40]	≤ 10	100 to 500
CC(C)OC(=O)N1CCN(c2ccnc3[nH]c(-c4cnn(C)c4)cc23)CC1 [Compound 41]	≤ 10	100 to 500
N#Cc1ccc(-c2cc3c(N4CCN(C(=O)C5CC5)CC4)ccnc3[nH]2)cc1 [Compound 45]	≤ 10	≤ 100
CCOC(=O)N1CCN(c2ccnc3[nH]c(-c4csc(C)n4)cc23)CC1 [Compound 46]	≤ 10	≤ 100
CCOC(=O)N1CCN(c2ccnc3[nH]c(-c4nc(C)cs4)cc23)CC1 [Compound 48]	≤ 10	100 to 500
CCOC(=O)N1CCN(c2ccnc3[nH]c(-c4ncc(C)s4)cc23)CC1 [Compound 49]	≤ 10	100 to 500
CCOC(=O)N1CCN(c2ccnc3[nH]c(-c4cnn(C)c4)c(F)c23)CC1 [Compound 50]	≤ 10	≤ 100
CCOC(=O)N1CCN(c2ccnc3[nH]c(-c4cn(C)nc4F)cc23)CC1 [Compound 51]	≤ 10	100 to 500
CCc1ccc(-c2cc3c(N4CCN(C(=O)C5CC5)CC4)ccnc3[nH]2)cc1 [Compound 52]	10 to 50	100 to 500
CCOC(=O)N1CCN(c2ccnc3[nH]c(-c4ccc(C#N)cc4)cc23)CC1 [Compound 53]	≤ 10	≤ 100
Cn1cc(-c2cc3c(N4CCN(C(=O)[C@H]5C[C@@H]5C#N)CC4)ccnc3[nH]2)cn1 [Compound 54]	≤ 10	100 to 500
Cn1cc(-c2[nH]c3nccc(N4CCN(C(=O)C5CC5)CC4)c3c2C#N)cn1 [Compound 55]	≤ 10	100 to 500
CCOC(=O)N1CCN(c2ccnc3[nH]c(-c4ccc(C#N)cn4)cc23)CC1 [Compound 56]	≤ 10	100 to 500
COc1cccc(-c2cc3c(N4CCN(C(=O)C5CC5)CC4)ccnc3[nH]2)c1 [Compound 59]	≤ 10	100 to 500
COc1ccc(-c2cc3c(N4CCN(C(=O)C5CC5)CC4)ccnc3[nH]2)cc1 [Compound 60]	≤ 10	100 to 500
Cn1cc(-c2cc3c(N4CCN(C(=O)C5CCCC5)CC4)ccnc3[nH]2)cn1 [Compound 64]	≤ 10	100 to 500
CC(C)n1cc(-c2cc3c(N4CCN(C(=O)C5CC5)CC4)ccnc3[nH]2)cn1 [Compound 65]	≤ 10	≤ 100
O=C(OC1COC1)N1CCN(c2ccnc3[nH]c(-c4ccccn4)cc23)CC1 [Compound 66]	≤ 10	100 to 500

From patent US11236086B2, “Substituted pyrrolopyridines as inhibitors of activin receptor-like kinase” (BLUEPRINT MEDICINES CORPORATION, priority 2017, dated 2022)
